Reference: patent publication US8735409B2, “Quinazoline derivatives” (priority 2009, dated 2014)

Experiment: Stability in Human Liver Microsomes
Type: in vitro ADME
Settings: pooled human liver microsomes 0.5 mg/mL protein, 1 mM NADPH, 37° C., N=1; for half-life: both sexes
Protocol: The liver microsomes stability of compounds of Examples 1-4 was compared with that of TOVOK, and the compound of Example 5 with CUDC-101.
The metabolic stability of compounds of the invention was tested using pooled liver microsomes prepared from mixed-gender humans, with 1 mM NADPH. The samples were analyzed using an LTQ-Orbitrap XL mass spectrometer. HRMS was used to determine the peak area response ratio (peak area corresponding to test compound or control divided by that of an analytical internal standard) without running a standard curve. HRMS scan was performed in an appropriate m/z range in order to detect all plausible metabolites
The assay was run with a single incubation (N=1). Incubated test compounds at 37° C. in buffer containing 0.5 mg/mL microsomal protein. Initiated the reaction by adding cofactors, sampling at 0, 10, 20, 30, and 60 minutes, Incubated positive control (5 μM testosterone) in parallel and sampling at 0, 10, and 30 minutes.
The control compound testosterone was run in parallel to verify the enzymatic activity of the microsomes. After the final time point, fluorimetry was used to confirm the addition of NADPH to the reaction mixture. T1/2 of control met the internal acceptance criteria.
• Liquid Chromatography • Column: Thermo BDS Hypersil C18 30×2.0 mm, 3 μm, with guard column • M.P. Buffer: 25 mM ammonium formate buffer, pH 3.5 • Aqueous Reservoir (A): 90% water, 10% buffer • Organic Reservoir (B): 90% acetonitrile, 10% buffer • Flow Rate: 300 μL/minute • Gradient Program:
• Total Run Time: 3.5 minutes • Autosampler: 10 μL Injection Volume • Autosampler Wash: water/methanol/2-propanol: 1/1/1; with 0.2% formic acid • Mass Spectrometer • Instrument: PE SCIEX API 3000 • Interface: Turbo Ionspray • Mode: Multiple Reaction Monitoring • Method: 3.5 minute duration

For `C#Cc1cccc(Nc2ncnc3cc(OC)c(OCCCCCCC(=O)NO)cc23)c1` [CUDC-101, reference compound], which half-life is on record?
Its half-life is 0.333 h.

What about the “Percentage remaining 0 min” value of the same compound?
The value was 100%.

And the “Percentage remaining 10 min” value?
The value was 74%.

And the “Percentage remaining 20 min” value?
Its value is 48%.

And the “Percentage remaining 30 min” value?
Its value is 35%.

What about the “Percentage remaining 60 min” value of the same compound?
The value was 14%.

With `[2H]C([2H])([2H])N(C/C=C/C(=O)Nc1cc2c(Nc3ccc(F)c(Cl)c3)ncnc2cc1O[C@H]1CCOC1)C([2H])([2H])[2H]` [Example 1, (S,E)-N-(4-(3-chloro-4-fluorophenylamino)-7-(tetrahydrofuran-3-yloxy)quinazolin-6-yl)-4-(D6-dimethylamino)but-2-enamide] as the compound, how does the “Percentage remaining 0 min” value read?
The value was 100%.

And the “Percentage remaining 10 min” value?
The value was 97%.

What about the “Percentage remaining 20 min” value of the same compound?
The value was 90%.

What about the “Percentage remaining 30 min” value of the same compound?
The value was 85%.

And the “Percentage remaining 60 min” value?
The value was 75%.

What about the Half life of the same compound?
The Half life was over 1 h.

For `[2H]C([2H])([2H])N(C/C=C/C(=O)Nc1cc2c(Nc3cccc(C#C)c3)ncnc2cc1O[C@H]1CCOC1)C([2H])([2H])[2H]` [Example 2, (S,E)-4-(D6-dimethylamino)-N-(4-(3-ethynylphenylamino)-7-(tetrahydrofuran-3-yloxy)quinazolin-6-yl)but-2-enamide], which “Percentage remaining 0 min” value is on record?
Its value is 100%.

What about the “Percentage remaining 10 min” value of the same compound?
Its value is 95%.

And the “Percentage remaining 20 min” value?
Its value is 87%.

What about the “Percentage remaining 30 min” value of the same compound?
Its value is 80%.

And the “Percentage remaining 60 min” value?
The value was 67%.

And the Half life?
Its Half life is over 1 h.

What does the source list for `[2H]C1(Oc2cc3ncnc(Nc4ccc(F)c(Cl)c4)c3cc2NC(=O)/C=C/CN(C)C)CCOC1` (stereo not drawn) [Example 3, (E)-N-(4-(3-chloro-4-fluorophenylamino)-7-((3-D)-tetrahydrofuran-3-yloxy)quinazolin-6-yl)-4-(dimethylamino)but-2-enamide]?
Percentage remaining 0 min: 100%; Percentage remaining 10 min: 97%; Percentage remaining 20 min: 89%; Percentage remaining 30 min: 84%; Percentage remaining 60 min: 73%; Half life: >1 h

Which results are given for `[2H]C1(Oc2cc3ncnc(Nc4cccc(C#C)c4)c3cc2NC(=O)/C=C/CN(C)C)CCOC1` [Example 4, (E)-4-(dimethylamino)-N-(4-(3-ethynylphenylamino)-7-(3-D-tetrahydrofuran-3-yloxy)quinazolin-6-yl)but-2-enamide]?
Percentage remaining 0 min: 100%; Percentage remaining 10 min: 94%; Percentage remaining 20 min: 87%; Percentage remaining 30 min: 79%; Percentage remaining 60 min: 70%; Half life: >1 h

What does the source list for `[2H]C([2H])([2H])Oc1cc2ncnc(Nc3cccc(C#C)c3)c2cc1OCCCCCCC(=O)NO` [Example 5, 7-(4-(3-ethynylphenylamino)-7-(D3-methoxy)quinazolin-6-yloxy)-N-hydroxyheptanamide]?
half-life: 0.467 h; Percentage remaining 0 min: 100%; Percentage remaining 10 min: 85%; Percentage remaining 20 min: 68%; Percentage remaining 30 min: 48%; Percentage remaining 60 min: 25%

With `CN(C)C/C=C/C(=O)Nc1cc2c(Nc3ccc(F)c(Cl)c3)ncnc2cc1O[C@H]1CCOC1` [TOVOK, reference compound] as the compound, how does the half-life read?
Its half-life is over 1 h.

What about the “Percentage remaining 0 min” value of the same compound?
The value was 100%.

What about the “Percentage remaining 10 min” value of the same compound?
Its value is 95%.

And the “Percentage remaining 20 min” value?
Its value is 85%.

And the “Percentage remaining 30 min” value?
The value was 75%.

What about the “Percentage remaining 60 min” value of the same compound?
Its value is 60%.
